# Data reported in patent US4256748A, “Imidazo[2,1-b]quinazolin-2(3H)-ones and pharmaceutical compositions for treatment and prophylaxis of cardiac insufficiency and cardiac failure” (Hoffmann-La Roche Inc., priority 1977, dated 1981).
# Structures can show the parent of a compound that is named as a salt.
# Tests used:
# [1] = system: blood platelet aggregation; test: Collagen-induced blood platelet aggregation, human plasma (aggregometer method of BORN); type: cell-based; settings: 10 min, 37° C., maximum aggregation velocity, read-out: EC 50, collagen-induced blood platelet aggregation, human plasma
# Description: The maximum aggregation velocity was taken as the test parameter and the effective concentration (EC50) was ascertained from dosage-activity curves. Human plasma was obtained by centifugation from venous blood treated with citrate (10.6 mM). 0.18 ml. of plasma was treated with 10 μl of an aqueous suspension of the test substance and the mixture was incubated at 37° C. for 10 minutes, whereupon the aggregation was initiated by the addition of 10 μl of collagen-fibril suspension. |Collagen- and ADP-induced blood platelet aggregation
# [2] = system: blood platelet aggregation; test: Collagen-induced blood platelet aggregation, rabbit plasma (aggregometer method of BORN); type: cell-based; settings: Oryctolagus cuniculus, 1 min, 37° C., 1 minute, maximum aggregation velocity, read-out: EC 50, collagen-induced blood platelet aggregation, rabbit plasma
# Description: (§1) The maximum aggregation velocity was taken as the test parameter and the effective concentration (EC50) was ascertained from dosage-activity curves. Rabbit plasma was obtained by centrifugation from arterial blood treated with citrate (9 mM). 1 ml. of plasma was treated with 10 μl of test solution and the mixture was incubated at 37° C. for 1 minute, whereupon 8 μl of collagen-fibril suspension or 10 μl. of adenosine diphosphate (ADP) in 10^-4 N sodium chloride solution were added. Plasma incubated with dimethylsulfoxide served as the control. |Collagen- and ADP-induced blood platelet aggregation
# [3] = system: blood platelet aggregation; test: ADP-induced blood platelet aggregation, rabbit plasma (aggregometer method of BORN); type: cell-based; settings: Oryctolagus cuniculus, 1 min, 37° C., 1 minute, maximum aggregation velocity, read-out: EC 50, ADP-induced blood platelet aggregation, rabbit plasma
# Description: as §1
# [4] = system: conscious sheepdogs; test: Positive inotropic activity and heart frequency after oral administration to conscious sheepdogs; type: in vivo
# Description: The positive inotropic activity was measured after the oral administration of a test substance to conscious sheepdogs. For this purpose, the animals are provided with an implanted pressure-telemetry system, so that the pressure receiver is fixed in the left ventricle. The left ventricular pressure is sent from the animal via the implanted radio transmitter and received via a suitable antenna and receiver system, demodulated and amplified. By differentiation of the ascending side of the left ventricular pressure (LVP), the maximum pressure increase rate (dLVP/dtmax) which represents the contractility parameter is calculated. Simultaneously, the heart frequency is recorded via a cardiotachograph. Under the heading inotropy in Table II, the percentage variation (Δ%) of dLVP/dtmax and the duration of activity in minutes (min) are indicated. Under the heading tachycardia in Table II, the percentage variations of the heart frequency (Δ%) after administration of the test substance and the duration of activity in minutes (min) are indicated.
Compound,EC50 [1],EC50 [2],EC50 [3],Heart frequency Min (duration of activity; tachycardia) ([4]; 5 mg/kg),Heart frequency Δ % (percentage variation; tachycardia) ([4]; 5 mg/kg),Heart frequency Min (duration of activity; tachycardia) ([4]; 10 mg/kg),Heart frequency Δ % (percentage variation; tachycardia) ([4]; 10 mg/kg),Inotropy Min (duration of activity) ([4]; 5 mg/kg),Inotropy Δ % (percentage variation of dLVP/dtmax) ([4]; 5 mg/kg),Inotropy Min (duration of activity) ([4]; 10 mg/kg),Inotropy Δ % (percentage variation of dLVP/dtmax) ([4]; 10 mg/kg)
"Cc1ccc2c(c1)CN1C(=N2)NC(=O)[C@@H]1C [L-1,5-Dihydro-3,7-dimethyl-imidazo[2,1-b]quinazolin-2(3H)-one hydrochloride]",33 µM,22 µM,77 µM,,,,,,,,
"Cc1cccc2c1N=C1NC(=O)[C@@H](C)N1C2 [D-1,5-dihydro-3,9-dimethylimidazo[2,1-b]-quinazolin-2(3H)-one hydrochloride]",26 µM,3 µM,32 µM,,,,,,,,
"Cc1cccc2c1N=C1NC(=O)[C@H](C)N1C2 [L-1,5-dihydro-3,9-dimethylimidazo[2,1-b]quinazolin-2(3H)-one]",49 µM,18 µM,60 µM,,,100 min,16%,,,120 min,43%
"Cc1ccc2c(c1)CN1C(=N2)NC(=O)[C@H]1C [D-1,5-dihydro-3,7-dimethylimidazo[2,1-b]-quinazolin-2(3H)-one hydrochloride]",3.4 µM,3.1 µM,19 µM,,,,,,,,

# Second part, led by results:
EC50 [1],EC50 [2],EC50 [3],Heart frequency Min (duration of activity; tachycardia) ([4]; 5 mg/kg),Heart frequency Δ % (percentage variation; tachycardia) ([4]; 5 mg/kg),Heart frequency Min (duration of activity; tachycardia) ([4]; 10 mg/kg),Heart frequency Δ % (percentage variation; tachycardia) ([4]; 10 mg/kg),Compound,Inotropy Min (duration of activity) ([4]; 5 mg/kg),Inotropy Δ % (percentage variation of dLVP/dtmax) ([4]; 5 mg/kg),Inotropy Min (duration of activity) ([4]; 10 mg/kg),Inotropy Δ % (percentage variation of dLVP/dtmax) ([4]; 10 mg/kg)
6.2 µM,0.93 µM,11 µM,,,,,"Cc1cccc2c1CN1C(=N2)NC(=O)[C@@H]1C [L-1,5-dihydro-3,6-dimethylimidazo[2,1-b]-quinazoline-2(3H)-one hydrochloride]",,,,
14 µM,,,,,,,"Cc1cccc2c1CN1C(=N2)NC(=O)[C@@H]1CO [L-1,5-dihydro-3-hydroxymethyl-6-methyl-imidazo[2,1-b]quinazoline-2(3H)-onehydrochloride]",,,,
,,,115 min,28%,,,"C[C@@H]1C(=O)NC2=Nc3cccc(Cl)c3CN21.Cl [D-6-chloro-1,5-dihydro-3-methyl-imidazo[2,1-b]quinazolin-2(3H)-one hydrochloride]",145 min,93%,,
2.3 µM,0.19 µM,2.2 µM,,,480 min,63%,"Cc1cccc2c1CN1C(=N2)NC(=O)[C@H]1C.Cl [D-1,5-dihydro-3,6-dimethylimidazo[2,1-b]-quinazolin-2(3H)-one hydrochloride]",,,440 min,82%
